pEC50, pIC50: −log10 of the molar value.
Key:
[1] = Inhibition of HCV 1a protease 1a domain; design: species or system Hepacivirus hominis
Hepatitis C virus [2] = assay: Antiviral activity against Hepatitis C virus subtype 1b by stable replicon assay; format: functional, organism-based, Hepacivirus hominis; conditions: genotype 1b
Hepatitis C virus [3] = assay: Antiviral activity against Hepatitis C virus subtype 1a by stable replicon assay; format: functional, organism-based, Hepacivirus hominis
Hepatitis C virus [4] = assay: Antiviral activity against Hepatitis C virus subtype 1b harboring protease D168V mutant by transient replicon assay; format: functional, organism-based, Hepacivirus hominis; conditions: genotype 1b
Hepatitis C virus [5] = assay: Antiviral activity against Hepatitis C virus subtype 1b harboring protease D168A mutant by transient replicon assay; format: functional, organism-based, Hepacivirus hominis; conditions: genotype 1b
Hepatitis C virus [6] = assay: Antiviral activity against Hepatitis C virus subtype 1b harboring protease A156V mutant by transient replicon assay; format: functional, organism-based, Hepacivirus hominis; conditions: genotype 1b
Hepatitis C virus [7] = assay: Antiviral activity against Hepatitis C virus subtype 1b harboring protease A156T mutant by transient replicon assay; format: functional, organism-based, Hepacivirus hominis; conditions: genotype 1b
Hepatitis C virus [8] = assay: Antiviral activity against Hepatitis C virus subtype 1b harboring protease A156S mutant by transient replicon assay; format: functional, organism-based, Hepacivirus hominis; conditions: genotype 1b
Hepatitis C virus [9] = assay: Antiviral activity against wild type Hepatitis C virus subtype 1b by transient replicon assay; format: functional, organism-based, Hepacivirus hominis; conditions: genotype 1b
Hepatitis C virus [10] = assay: Antiviral activity against Hepatitis C virus subtype 1b harboring protease R155K mutant by transient replicon assay; format: functional, organism-based, Hepacivirus hominis; conditions: genotype 1b
Hepatitis C virus [11] = assay: Resistance index, ratio of EC50 for Hepatitis C virus subtype 1b harboring protease R155K mutant to EC50 for wild type Hepatitis C virus subtype 1b; format: functional, Hepacivirus hominis, genotype 1b
Hepatitis C virus [12] = assay: Resistance index, ratio of EC50 for Hepatitis C virus subtype 1b harboring protease D168A mutant to EC50 for wild type Hepatitis C virus subtype 1b; format: functional, Hepacivirus hominis, genotype 1b
Hepatitis C virus [13] = assay: Resistance index, ratio of EC50 for Hepatitis C virus subtype 1b harboring protease D168V mutant to EC50 for wild type Hepatitis C virus subtype 1b; format: functional, Hepacivirus hominis, genotype 1b

SMILES | pIC50 [1] | pEC50 (Hepatitis C virus [2]) | pEC50 (Hepatitis C virus [3]) | pEC50 (Hepatitis C virus [4]) | pEC50 (Hepatitis C virus [5]) | pEC50 (Hepatitis C virus [6]) | pEC50 (Hepatitis C virus [7]) | pEC50 (Hepatitis C virus [8]) | pEC50 (Hepatitis C virus [9]) | pEC50 (Hepatitis C virus [10]) | Ratio EC50 (Hepatitis C virus [11]) | Ratio EC50 (Hepatitis C virus [12]) | Ratio EC50 (Hepatitis C virus [13])
COc1ccc2c(O[C@@H]3C[C@H]4C(=O)N[C@]5(C(=O)NS(=O)(=O)C6CC6)C[C@H]5/C=C\CCCCC[C@H](NC(=O)NCc5ccc6c(c5)B(O)OC6)C(=O)N4C3)cc(-c3nc(C(C)C)cs3)nc2c1C | 8.70 | 9.10 | 8.47 | 6.84 | 6.60 | 8.05 | 8.15 | 9.70 | 9.05 | 7.31 |  |  | 
COc1ccc2c(O[C@@H]3C[C@H]4C(=O)N[C@]5(C(=O)NS(=O)(=O)C6CC6)C[C@H]5/C=C\CCCCC[C@H](NC(=O)NCc5ccc(CO)c(O)c5)C(=O)N4C3)cc(-c3nc(C(C)C)cs3)nc2c1C | 9.30 | 8.96 | 7.81 |  |  |  |  |  |  |  |  |  | 
COc1ccc2c(O[C@@H]3C[C@H]4C(=O)N[C@]5(C(=O)NS(=O)(=O)C6CC6)C[C@H]5/C=C\CCCCC[C@H](NC(N)=O)C(=O)N4C3)cc(-c3nc(C(C)C)cs3)nc2c1C | 8.70 | 9.30 | 8.74 | 5.65 | 6.06 | 7.80 | 8.22 |  | 9.40 | 7.18 |  |  | 
COc1ccc2c(O[C@@H]3C[C@H]4C(=O)N[C@]5(C(=O)NS(=O)(=O)C6CC6)C[C@H]5/C=C\CCCCC[C@H](NC(=O)N(C)C)C(=O)N4C3)cc(-c3nc(C(C)C)cs3)nc2c1C | 8.70 | 10.00 | 9.52 | 7.24 | 7.44 | 8.30 | 9.00 |  | 10.40 | 8.00 |  |  | 
CCN(CC)C(=O)N[C@H]1CCCCC/C=C\[C@@H]2C[C@@]2(C(=O)NS(=O)(=O)C2CC2)NC(=O)[C@@H]2C[C@@H](Oc3cc(-c4nc(C(C)C)cs4)nc4c(C)c(OC)ccc34)CN2C1=O | 9.00 | 9.15 | 9.05 | 6.88 | 7.25 | 8.10 | 8.70 | 9.30 | 10.00 | 7.82 |  |  | 
COc1ccc2c(O[C@@H]3C[C@H]4C(=O)N[C@]5(C(=O)NS(=O)(=O)C6CC6)C[C@H]5/C=C\CCCCC[C@H](NC(=O)N5CCOCC5)C(=O)N4C3)cc(-c3nc(C(C)C)cs3)nc2c1C | 8.70 | 9.30 | 9.52 | 7.48 | 7.77 | 8.70 | 9.70 | 10.52 | 11.00 | 8.40 |  |  | 
COc1ccc2c(O[C@@H]3C[C@H]4C(=O)N[C@]5(C(=O)NS(=O)(=O)C6CC6)C[C@H]5/C=C\CCCCC[C@H](NC(=O)N5CCCC5)C(=O)N4C3)cc(-c3nc(C(C)C)cs3)nc2c1C | 8.40 | 9.40 | 9.40 | 6.70 | 7.07 | 8.05 | 8.70 | 9.70 | 10.00 | 7.82 |  |  | 
COc1ccc2c(O[C@@H]3C[C@H]4C(=O)N[C@]5(C(=O)NS(=O)(=O)C6CC6)C[C@H]5/C=C\CCCCC[C@H](NC(=O)N5CCC(C)(C)C5)C(=O)N4C3)cc(-c3nc(C(C)C)cs3)nc2c1C | 8.70 | 9.30 | 9.22 | 6.86 | 7.55 | 7.96 | 8.70 |  | 10.00 | 7.77 |  |  | 
COc1ccc2c(O[C@@H]3C[C@H]4C(=O)N[C@]5(C(=O)NS(=O)(=O)C6CC6)C[C@H]5/C=C\CCCCC[C@H](NC(=O)N5CCC(O)CC5)C(=O)N4C3)cc(-c3nc(C(C)C)cs3)nc2c1C | 8.70 | 9.52 | 9.22 | 6.81 | 7.38 | 8.05 | 8.70 |  | 10.00 | 8.15 |  |  | 
COc1ccc2c(O[C@@H]3C[C@H]4C(=O)N[C@]5(C(=O)NS(=O)(=O)C6CC6)C[C@H]5/C=C\CCCCC[C@H](NC(=O)N5CCC(CO)CC5)C(=O)N4C3)cc(-c3nc(C(C)C)cs3)nc2c1C | 9.00 | 9.52 | 9.15 | 6.85 | 7.33 | 8.05 | 8.70 |  | 10.00 | 7.85 |  |  | 
COc1ccc2c(O[C@@H]3C[C@H]4C(=O)N[C@]5(C(=O)NS(=O)(=O)C6CC6)C[C@H]5/C=C\CCCCC[C@H](NC(=O)N5CCC(CC(N)=O)CC5)C(=O)N4C3)cc(-c3nc(C(C)C)cs3)nc2c1C | 8.70 | 8.82 | 8.25 |  | 6.37 | 8.00 | 8.52 | 10.00 | 9.70 | 7.19 |  |  | 
COc1ccc2c(O[C@@H]3C[C@H]4C(=O)N[C@]5(C(=O)NS(=O)(=O)C6CC6)C[C@H]5/C=C\CCCCC[C@H](NC(=O)N5CCC(CC(=O)O)CC5)C(=O)N4C3)cc(-c3nc(C(C)C)cs3)nc2c1C | 9.05 | 9.10 | 8.66 | 6.79 | 8.15 | 8.52 | 9.00 | 9.70 | 10.00 | 7.68 |  |  | 
COc1ccc2c(O[C@@H]3C[C@H]4C(=O)N[C@]5(C(=O)NS(=O)(=O)C6CC6)C[C@H]5/C=C\CCCCC[C@H](NC(=O)N5CC6CCCC6C5)C(=O)N4C3)cc(-c3nc(C(C)C)cs3)nc2c1C (stereo partly specified) | 8.30 | 9.52 | 9.52 | 7.08 | 7.64 | 7.82 | 9.00 | 10.00 | 11.00 | 7.96 |  |  | 
COc1ccc2c(O[C@@H]3C[C@H]4C(=O)N[C@]5(C(=O)NS(=O)(=O)C6CC6)C[C@H]5/C=C\CCCCC[C@H](NC(=O)N5CCC(c6ccccc6)CC5)C(=O)N4C3)cc(-c3nc(C(C)C)cs3)nc2c1C | 8.15 | 9.05 | 8.80 | 6.41 | 6.74 | 7.52 | 8.30 |  | 9.70 | 7.16 |  |  | 
COc1ccc2c(O[C@@H]3C[C@H]4C(=O)N[C@]5(C(=O)NS(=O)(=O)C6CC6)C[C@H]5/C=C\CCCCC[C@H](NC(=O)N5C[C@@H](C)O[C@@H](C)C5)C(=O)N4C3)cc(-c3nc(C(C)C)cs3)nc2c1C | 8.70 | 8.92 | 7.97 | 5.68 | 6.37 | 7.16 | 7.64 | 9.00 | 9.15 | 6.63 |  |  | 
COc1ccc2c(O[C@@H]3C[C@H]4C(=O)N[C@]5(C(=O)NS(=O)(=O)C6CC6)C[C@H]5/C=C\CCCCC[C@H](NC(=O)N5CCS(=O)(=O)CC5)C(=O)N4C3)cc(-c3nc(C(C)C)cs3)nc2c1C | 8.70 | 9.30 | 8.64 | 5.85 | 6.43 | 7.42 | 8.30 | 9.52 | 9.40 | 6.94 |  |  | 
COc1ccc2c(O[C@@H]3C[C@H]4C(=O)N[C@]5(C(=O)NS(=O)(=O)C6CC6)C[C@H]5/C=C\CCCCC[C@H](NC(=O)N5CCC(N6CCCC6)CC5)C(=O)N4C3)cc(-c3nc(C(C)C)cs3)nc2c1C | 8.70 | 9.30 | 9.22 |  | 5.79 | 7.01 | 7.92 | 8.72 | 9.30 | 6.99 |  |  | 
COc1ccc2c(O[C@@H]3C[C@H]4C(=O)N[C@]5(C(=O)NS(=O)(=O)C6CC6)C[C@H]5/C=C\CCCCC[C@H](NC(=O)N5CCN(C6CCCC6)CC5)C(=O)N4C3)cc(-c3nc(C(C)C)cs3)nc2c1C | 8.70 | 9.52 | 9.30 | 6.32 | 6.77 | 7.49 | 8.30 |  | 10.00 | 7.22 |  |  | 
COc1ccc2c(O[C@@H]3C[C@H]4C(=O)N[C@]5(C(=O)NS(=O)(=O)C6CC6)C[C@H]5/C=C\CCCCC[C@H](NC(=O)N(C)C(C)(C)C)C(=O)N4C3)cc(-c3nc(C4CC4)cs3)nc2c1C |  | 9.00 | 9.00 | 7.08 | 7.15 | 8.05 | 8.15 | 9.40 | 9.70 | 7.55 | <1000 | <1000 | <1000
CC(C)(C)NC(=O)N[C@H](C(=O)N1C[C@H]2[C@@H]([C@H]1C(=O)NC(CC1CCC1)C(=O)C(N)=O)C2(C)C)C(C)(C)C (stereo partly specified) [BOCEPREVIR] |  |  |  | 7.40 |  |  | 4.92 |  | 6.40 | 6.15 |  |  | 
COc1ccc2c(O[C@@H]3C[C@H]4C(=O)N[C@]5(C(=O)O)C[C@H]5/C=C\CCCCC[C@H](NC(=O)OC5CCCC5)C(=O)N4C3)cc(-c3csc(NC(C)C)n3)nc2c1 [CILUPREVIR] | 8.70 | 9.30 | 8.66 | 6.36 | 6.69 | 6.20 | 6.22 | 8.52 | 9.00 | 6.62 |  |  | 
CC[C@@H]1C[C@]1(NC(=O)[C@@H]1C[C@@H]2CN1C(=O)[C@H](C(C)(C)C)NC(=O)OCC(C)(C)CCCCc1cccc3c1CN(C3)C(=O)O2)C(=O)NS(=O)(=O)C1CC1 [VANIPREVIR] |  |  |  |  |  |  |  |  | 8.80 |  |  |  | 
